Measured values from patent US20140005163A1 (NOVARTIS AG, priority 2010, published 2014).

Experiments:
[1] = tested on: S6 Ribosomal Protein phosphorylation Ser235/236 in TSC1 null mouse embryo fibroblast (MEF) cells; test: Reverse protein array assay, S6 Ribosomal Protein phosphorylation Ser235/236 in TSC1 null MEF cells; assay type: cell-based; settings: 1 h, pS6 ribosomal protein Ser235/236, 60 minutes incubation, read-out: p-S6 IC50
Outline: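 TSC1−/− MEFs, seeded and held ≥20 h at 37 °C/5% CO2, were exposed to 8-step serial compound dilutions (0.02% DMSO final; DMSO vehicle control) for 60 min at 37 °C. Cells were then lysed on ice for 10 min and lysates spotted onto reverse protein array chips.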

[2] = tested on: PKB Ser473 phosphorylation in Rat1-myr-HA-p110 beta cells; test: Reverse protein array assay, PKB Ser473 phosphorylation in Rat1-myr-p110 beta cells; assay type: cell-based; settings: 0.5 h, pAkt Ser473, 30 minutes incubation, read-out: p-PKB IC50
Outline: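 Measured: PKB Ser473 phosphorylation by reverse protein array in Rat1 cells expressing myr-HA-p110 alpha, beta or delta, after 30 min compound treatment at 37 °C with 0.2% DMSO vehicle.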

[3] = target: T1, PI3K beta (Homo sapiens, UniProt P42338); test: PI3K beta kinase assay (Kinase-Glo luminescence); assay type: biochemical
T1 construct: for the full-length p110-b subunit are generated and fused by overlapping PCR; p85(iSH2) fusion partner (see partner chain) (N); His tag (C); made in house; host or cells: baculovirus; Tn5 (Trichoplusia ni) or TiniPro insect cells
Outline: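 Enzyme: BV949 p85(iSH2)-Gly linker-p110β FL-His, 25 nM. Substrate: PI 10 μg/mL. ATP: 1 μM, added to start. Buffer: Tris pH 7.5 10 mM, MgCl2 3 mM, NaCl 50 mM, CHAPS 0.05%, DTT 1 mM. RT, 60 min. Readout: Kinase-Glo. IC50 by 4-parameter fit.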

T1 sequence (P42338 with tags, fused parts or gaps limits assumed): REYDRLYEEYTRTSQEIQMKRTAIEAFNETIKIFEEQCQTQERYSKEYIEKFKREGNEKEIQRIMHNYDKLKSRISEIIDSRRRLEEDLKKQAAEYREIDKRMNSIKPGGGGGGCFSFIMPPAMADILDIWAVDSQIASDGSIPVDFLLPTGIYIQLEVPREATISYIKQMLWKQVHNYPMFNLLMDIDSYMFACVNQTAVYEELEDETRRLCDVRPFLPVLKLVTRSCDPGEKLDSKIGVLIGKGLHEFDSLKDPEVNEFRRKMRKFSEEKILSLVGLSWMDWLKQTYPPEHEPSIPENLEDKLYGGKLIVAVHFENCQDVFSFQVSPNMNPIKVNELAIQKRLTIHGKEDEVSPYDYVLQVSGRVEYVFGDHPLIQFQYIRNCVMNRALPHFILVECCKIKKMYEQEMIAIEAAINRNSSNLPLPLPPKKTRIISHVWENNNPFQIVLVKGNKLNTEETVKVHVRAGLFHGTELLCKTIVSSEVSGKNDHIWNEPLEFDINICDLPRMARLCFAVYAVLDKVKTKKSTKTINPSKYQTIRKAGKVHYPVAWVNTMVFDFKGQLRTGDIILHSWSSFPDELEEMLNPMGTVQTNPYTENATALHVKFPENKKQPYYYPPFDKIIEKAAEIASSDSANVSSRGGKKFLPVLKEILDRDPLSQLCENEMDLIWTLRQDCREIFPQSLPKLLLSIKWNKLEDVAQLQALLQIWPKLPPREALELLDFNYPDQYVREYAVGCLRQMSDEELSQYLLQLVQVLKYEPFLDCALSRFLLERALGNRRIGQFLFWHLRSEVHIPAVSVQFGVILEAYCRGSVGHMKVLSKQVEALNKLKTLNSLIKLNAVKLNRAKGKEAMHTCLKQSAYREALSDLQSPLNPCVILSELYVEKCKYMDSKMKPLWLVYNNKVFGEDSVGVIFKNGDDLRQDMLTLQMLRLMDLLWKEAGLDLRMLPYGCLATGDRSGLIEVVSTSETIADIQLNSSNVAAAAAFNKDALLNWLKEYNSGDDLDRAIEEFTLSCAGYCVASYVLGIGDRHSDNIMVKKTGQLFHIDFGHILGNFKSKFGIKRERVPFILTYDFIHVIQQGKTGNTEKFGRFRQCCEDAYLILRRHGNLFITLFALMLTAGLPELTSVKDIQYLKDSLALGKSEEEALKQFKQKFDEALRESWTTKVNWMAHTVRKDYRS

Row | IC50 [2] [nM] | IC50 [3] [nM] | SMILES | IC50 [1] [nM]
1 | 22 |  | Cc1nn(C(C)C)cc1-n1c(=O)n(C)c2cnc3ccc(-c4ccc(N5CCC5)nc4)cc3c21 [Example 5.2, 8-(6-Azetidin-1-yl-pyridin-3-yl)-1-(1-isopropyl-3-methyl-1H-pyrazol-4-yl)-3-methyl-1,3-dihydro-imidazo[4,5-c]quinolin-2-one] | 5
2 | 68 | 12 | Cc1nn(C)cc1-n1c(=O)n(C)c2cnc3ccc(-c4cnc(F)c(N)c4)cc3c21 [Example 149.2, 8-(5-Amino-6-fluoro-pyridin-3-yl)-1-(1,3-dimethyl-1H-pyrazol-4-yl)-3-methyl-1,3-dihydro-imidazo[4,5-c]quinolin-2-one] | 3
3 | 8 | 28 | CCNc1cc(-c2ccc3ncc4c(c3c2)n(-c2cn(CC)nc2C)c(=O)n4C)cnc1COC [Example 157, 8-(5-Ethylamino-6-methoxymethyl-pyridin-3-yl)-1-(1-ethyl-3-methyl-1H-pyrazol-4-yl)-3-methyl-1,3-dihydro-imidazo[4,5-c]quinolin-2-one] | 1
4 | 11 | 66 | CCn1cc(-n2c(=O)n(C)c3cnc4ccc(-c5cnc(NC)c(Cl)c5)cc4c32)c(C)n1 [Example 146.2, 8-(5-Chloro-6-methylamino-pyridin-3-yl)-1-(1-ethyl-3-methyl-1H-pyrazol-4-yl)-3-methyl-1,3-dihydro-imidazo[4,5-c]quinolin-2-one] | 2
5 | 176 |  | Cc1nn(C)cc1-n1c(=O)n(C)c2cnc3ccc(-c4cnc5c(c4)nc(N(C)C)n5C)cc3c21 [Example 70, 8-(2-Dimethylamino-3-methyl-3H-imidazo[4,5-b]pyridin-6-yl)-1-(1,3-dimethyl-1H-pyrazol-4-yl)-3-methyl-1,3-dihydro-imidazo[4,5-c]quinolin-2-one] | 16
6 | 16 | 10 | COc1cc(-c2ccc3ncc4c(c3c2)n(-c2cn(C)nc2C)c(=O)n4C)cnc1C [Example 184, 1-(1,3-Dimethyl-1H-pyrazol-4-yl)-8-(5-methoxy-6-methyl-pyridin-3-yl)-3-methyl-1,3-dihydro-imidazo[4,5-c]quinolin-2-one] | 5
7 | 6 |  | Cc1nn(CC(=O)N(C)C)cc1-n1c(=O)n(C)c2cnc3ccc(-c4ccc(-n5cccn5)cc4)cc3c21 [Example 51.2, N,N-Dimethyl-2-{3-methyl-4-[3-methyl-2-oxo-8-(4-pyrazol-1-yl-phenyl)-2,3-dihydro-imidazo[4,5-c]quinolin-1-yl]-pyrazol-1-yl}-acetamide] | 1
8 | 428 |  | COCCN(C)C(=O)Cn1cc(-n2c(=O)n(C)c3cnc4ccc(-c5ccccc5)cc4c32)c(C)n1 [Example 137, N-(2-Methoxy-ethyl)-N-methyl-2-[3-methyl-4-(3-methyl-2-oxo-8-phenyl-2,3-dihydro-imidazo[4,5-c]quinolin-1-yl)-pyrazol-1-yl]-acetamide] | 9
9 | 166 |  | CCOc1ccc(-c2ccc3ncc4c(c3c2)n(-c2c(C)nn(CC(=O)N(C)C)c2C)c(=O)n4C)cn1 [Example 3.12, 2-{4-[8-(6-Ethoxy-pyridin-3-yl)-3-methyl-2-oxo-2,3-dihydro-imidazo[4,5-c]quinolin-1-yl]-3,5-dimethyl-pyrazol-1-yl}-N,N-dimethyl-acetamide] | 175
10 |  | 193 | CCOc1cncc(-c2ccc3ncc4c(c3c2)n(-c2c(C)cnn2C)c(=O)n4C)c1 [Example 56.5, 1-(2,4-Dimethyl-2H-pyrazol-3-yl)-8-(5-ethoxy-pyridin-3-yl)-3-methyl-1,3-dihydro-imidazo[4,5-c]quinolin-2-one] | 130
11 | 39 |  | CCN(CC)C(=O)Cn1cc(-n2c(=O)n(C)c3cnc4ccc(-c5ccc(C)nc5)cc4c32)c(C)n1 [Example 139, N,N-Diethyl-2-{3-methyl-4-[3-methyl-8-(6-methyl-pyridin-3-yl)-2-oxo-2,3-dihydro-imidazo[4,5-c]quinolin-1-yl]-pyrazol-1-yl}-acetamide] | 4
12 | 199 |  | Cc1nn(C)cc1-n1c(=O)n(C)c2cnc3ccc(-c4ccc(N5CC[C@@H](O)C5)nc4)cc3c21 [Example 212.1, 1-(1,3-Dimethyl-1H-pyrazol-4-yl)-8-[6-((R)-3-hydroxy-pyrrolidin-1-yl)-pyridin-3-yl]-3-methyl-1,3-dihydro-imidazo[4,5-c]quinolin-2-one] | 7
13 | 70 |  | CCOc1ccc(-c2ccc3ncc4c(c3c2)n(-c2cn(CC(=O)N3CCOCC3)nc2C)c(=O)n4C)cn1 [Example 3.10, 8-(6-Ethoxy-pyridin-3-yl)-3-methyl-1-[3-methyl-1-(2-morpholin-4-yl-2-oxo-ethyl)-1H-pyrazol-4-yl]-1,3-dihydro-imidazo[4,5-c]quinolin-2-one] | 10
14 | 386 | 120 | COc1ccc(-c2ccc3ncc4c(c3c2)n(-c2c(C)nn(C)c2C)c(=O)n4C)cn1 [Example 2.4, 8-(6-Methoxy-pyridin-3-yl)-3-methyl-1-(1,3,5-trimethyl-1H-pyrazol-4-yl)-1,3-dihydro-imidazo[4,5-c]quinolin-2-one] | 
15 | 16 |  | CCOc1ccc(-c2ccc3ncc4c(c3c2)n(-c2cn(CC(=O)N(C)CC)nc2C)c(=O)n4C)cn1 [Example 136, 2-{4-[8-(6-Ethoxy-pyridin-3-yl)-3-methyl-2-oxo-2,3-dihydro-imidazo[4,5-c]quinolin-1-yl]-3-methyl-pyrazol-1-yl}-N-ethyl-N-methyl-acetamide] | 3
16 |  | 129 | COCCn1c(=O)n(C)c2ncc(-c3ccc4ncc5c(c4c3)n(-c3cn(C)nc3C)c(=O)n5C)cc21 [Example 69, 1-(1,3-Dimethyl-1H-pyrazol-4-yl)-8-[1-(2-methoxy-ethyl)-3-methyl-2-oxo-2,3-dihydro-1H-imidazo[4,5-b]pyridin-6-yl]-3-methyl-1,3-dihydro-imidazo[4,5-c]quinolin-2-one] | 
17 | 143 | 167 | CCOc1ccc(-c2ccc3ncc4c(c3c2)n(-c2c(C)nn(C)c2C)c(=O)n4C)cc1OC [Example 29.2, 8-(4-Ethoxy-3-methoxy-phenyl)-3-methyl-1-(1,3,5-trimethyl-1H-pyrazol-4-yl)-1,3-dihydro-midazo[4,5-c]quinolin-2-one] | 
18 | 615 | 382 | Cc1nn(C)c(C)c1-n1c(=O)n(C)c2cnc3ccc(-c4ccc(N(C)C)nc4)cc3c21 [Example 4.3, 8-(6-Dimethylamino-pyridin-3-yl)-3-methyl-1-(1,3,5-trimethyl-1H-pyrazol-4-yl)-1,3-dihydro-imidazo[4,5-c]quinolin-2-one] | 
19 | 326 | 387 | Cc1cc(-n2c(=O)n(C)c3cnc4ccc(-c5ccc(C(F)(F)F)nc5)cc4c32)n(C)n1 [Example 8.2, 1-(2,5-Dimethyl-2H-pyrazol-3-yl)-3-methyl-8-(6-trifluoromethyl-pyridin-3-yl)-1,3-dihydro-imidazo[4,5-c]quinolin-2-one] | 
20 | < 5 | 20 | CCc1ncc(-c2ccc3ncc4c(c3c2)n(-c2cn(C)nc2C)c(=O)n4C)cc1NC(C)C [Example 162, 1-(1,3-Dimethyl-1H-pyrazol-4-yl)-8-(6-ethyl-5-isopropylamino-pyridin-3-yl)-3-methyl-1,3-dihydro-imidazo[4,5-c]quinolin-2-one] | 
